Numbered stars: 1 amine (or outer) side, 2 acyl side, 3 side chain; on linkers, the order of the positions; unused ones are H or OH. Bridge positions count the residues as written; N and C are the ends. Square brackets hold non-standard residues; d marks the D form. Peptide text beside a SMILES is read from it. * marks the point of attachment. Ala(piperidin-4-yl) = O=C([C@H](CC1CCN([*:3])CC1)N[*:1])[*:2]; X1 = C[C@@]1(C(=O)C[C@@H](Cc2ccccc2)C(=O)[*:2])CCCN1[*:1]; DOTA = O=C(O)CN1CCN(CC(=O)O)CCN(CC(=O)*)CCN(CC(=O)O)CC1; Phe(4-COOH) = N[C@@H](Cc1ccc(C(=O)O)cc1)C(=O)O; Trp(7-Me) = Cc1cccc2c(C[C@H](N)C(=O)O)c[nH]c12; Trp(7-aza) = N[C@@H](Cc1c[nH]c2ncccc12)C(=O)O; 1Nal = N[C@@H](Cc1cccc2ccccc12)C(=O)O; 2Nal = N[C@@H](Cc1ccc2ccccc2c1)C(=O)O; NMetBuAla = CN[C@@H](CC(C)(C)C)C(=O)O; oXylylene = c1ccc(C[*:2])c(C[*:1])c1; NMeChg = CN[C@H](C(=O)O)C1CCCCC1; tBuAla = CC(C)(C)C[C@H](N)C(=O)O; Chg = N[C@H](C(=O)O)C1CCCCC1; αMeP = C[C@@]1(C(=O)O)CCCN1; Ahx = NCCCCCC(=O)O
Molecular target: T1, human DLL3 (Homo sapiens, UniProt Q9NYJ7)
T1 construct: biotin (biotinylated)
T1 sequence (Q9NYJ7 27-618): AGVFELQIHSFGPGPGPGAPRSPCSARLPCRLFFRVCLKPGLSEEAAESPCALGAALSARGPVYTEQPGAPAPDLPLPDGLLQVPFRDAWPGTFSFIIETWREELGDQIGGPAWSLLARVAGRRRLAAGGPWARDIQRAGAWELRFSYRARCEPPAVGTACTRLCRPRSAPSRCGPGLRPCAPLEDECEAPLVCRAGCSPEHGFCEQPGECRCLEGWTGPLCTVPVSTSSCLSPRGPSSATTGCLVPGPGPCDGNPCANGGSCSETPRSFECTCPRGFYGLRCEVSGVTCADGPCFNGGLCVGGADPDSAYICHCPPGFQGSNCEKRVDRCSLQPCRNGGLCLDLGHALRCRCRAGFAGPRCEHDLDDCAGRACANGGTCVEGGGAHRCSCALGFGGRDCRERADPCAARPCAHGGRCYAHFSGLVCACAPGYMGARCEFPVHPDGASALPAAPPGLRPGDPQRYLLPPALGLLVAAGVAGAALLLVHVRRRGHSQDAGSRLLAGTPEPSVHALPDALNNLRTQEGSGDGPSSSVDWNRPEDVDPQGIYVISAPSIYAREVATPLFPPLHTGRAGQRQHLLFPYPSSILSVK
Assay: Affinity determination by Surface Plasmon Resonance (SPR), Biacore, 1:1 binding model
Conditions: biotinylated human DLL3 on streptavidin chip, 25° C.; NB = nonbinding
Method in brief: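 SPR with biotinylated human DLL3 captured on a streptavidin chip, with a reference surface subtracted. Samples were injected at several concentrations at 100 μL/min in phosphate buffer with 137 mM NaCl, 2.7 mM KCl, 0.05% P20 and 2% DMSO. Kinetic and affinity constants came from a 1:1 binding fit.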

| Kd | SPR KD (nM) | Compound |
| --- | --- | --- |
| 5.39 nM |  | CC(=O)N[C@H](C(=O)N[C@@H](CO)C(=O)N[C@@H](CC(=O)O)C(=O)N[C@H]1CSSC[C@@H](C(=O)N2CCC[C@@]2(C)C(=O)N[C@@H](Cc2ccccc2)C(=O)N[C@@H](CC(=O)O)C(=O)N[C@H](CCCCNC(=O)CN2CCN(CC(=O)O)CCN(CC(=O)O)CCN(CC(=O)O)CC2)C(N)=O)NC(=O)[C@H](CC(N)=O)NC(=O)[C@H](Cc2ccc3ccccc3c2)NC(=O)[C@H](CC2CCNCC2)NC(=O)[C@H](CC(C)(C)C)N(C)C(=O)[C@H](Cc2cccc3ccccc23)NC1=O)C1CCCCC1 [compound 182, Ac-Chg-S-D-C(3)-(1Nal)-(NMe-Tba)-[3-(4-piperidinyl)-Ala]-(2Nal)-N-C(3)-(aMe-P)-F -D-[D-Lys(DOTA)]-NH2] (Ac-[Chg]SDC[1Nal][NMetBuAla][Ala(piperidin-4-yl)][2Nal]NC[αMeP]FD[dK](DOTA)-NH2; disulfide 4-10) |
| > 30 nM |  | CC(=O)N[C@H](C(=O)N[C@@H](CO)C(=O)N[C@@H](CC(=O)O)C(=O)N[C@H]1CSSC[C@@H](C(=O)N2CCC[C@@]2(C)C(=O)N[C@@H](Cc2ccccc2)C(=O)N[C@@H](CC(=O)O)C(=O)N[C@H](CCCCNC(=O)CN2CCN(CC(=O)O)CCN(CC(=O)O)CCN(CC(=O)O)CC2)C(N)=O)NC(=O)[C@H](CC(N)=O)NC(=O)[C@H](Cc2c[nH]c3c(C)cccc23)NC(=O)[C@H](CC2CCNCC2)NC(=O)[C@H](C2CCCCC2)N(C)C(=O)[C@H](Cc2cccc3ccccc23)NC1=O)C1CCCCC1 [compound 185, Ac-Chg-S-D-C(3)-(1Nal)-(NMe-Chg)-[3-(4-piperidinyl)-Ala]-(7Me-W)-N-C(3)-(aMe-P)-F -D-[D-Lys(DOTA)]-NH2] (Ac-[Chg]SDC[1Nal][NMeChg][Ala(piperidin-4-yl)][Trp(7-Me)]NC[αMeP]FD[dK](DOTA)-NH2; disulfide 4-10) |
| 0.29 nM |  | CC(=O)N[C@H](C)C(=O)N[C@@H](CO)C(=O)N[C@@H](CC(=O)O)C(=O)N[C@H]1CSSC[C@@H](C(=O)N2CCC[C@@]2(C)C(=O)N[C@@H](Cc2ccccc2)C(=O)N[C@@H](CC(=O)O)C(=O)N[C@H](CCCCNC(=O)CN2CCN(CC(=O)O)CCN(CC(=O)O)CCN(CC(=O)O)CC2)C(N)=O)NC(=O)[C@H](CC(N)=O)NC(=O)[C@H](Cc2ccc3ccccc3c2)NC(=O)[C@H](CC2CCNCC2)NC(=O)[C@H](CC(C)(C)C)NC(=O)[C@H](Cc2cccc3ccccc23)NC1=O [compound 146, Ac-(D-Ala)-S-D-C(3)-(1Nal)-(t-Bu-Ala)-[3-(4-piperidinyl)-Ala]-(2Nal)-N-C(3)-(aMe-P)-F -D-D-Lys(DOTA)-CONH2] (Ac-[dA]SDC[1Nal][tBuAla][Ala(piperidin-4-yl)][2Nal]NC[αMeP]FD[dK](DOTA)-NH2; disulfide 4-10) |
| > 300 nM |  | CSCC[C@H](NC(C)=O)C(=O)N[C@@H](CO)C(=O)N[C@@H](CC(=O)O)C(=O)N[C@H]1CSSC[C@@H](C(=O)N2CCC[C@H]2C(=O)N[C@@H](Cc2ccccc2)C(=O)N[C@@H](CC(=O)O)C(=O)N[C@H](CCCCNC(=O)CN2CCN(CC(=O)O)CCN(CC(=O)O)CCN(CC(=O)O)CC2)C(N)=O)NC(=O)[C@H](CC(N)=O)NC(=O)[C@H](Cc2c[nH]c3ccccc23)NC(=O)[C@H](CCC(N)=O)NC(=O)[C@H](CC(C)C)NC(=O)[C@H](Cc2c[nH]c3ncccc23)NC1=O [compound 57, Ac-M-S-D-C(3)-(7Aza-W)-L-Q-W-N-C(3)-P-F-D-D-Lys(DOTA)-CONH2] (Ac-MSDC[Trp(7-aza)]LQWNCPFD[dK](DOTA)-NH2; disulfide 4-10) |
| > 100 nM |  | CC(C)C[C@@H]1NC(=O)[C@H](Cc2c[nH]c3ccccc23)NC(=O)[C@@H](NC(=O)[C@H](CC(=O)O)NC(=O)[C@H](CO)NC(=O)CCCCCNC(=O)CN2CCN(CC(=O)O)CCN(CC(=O)O)CCN(CC(=O)O)CC2)CSSC[C@@H](C(=O)N2CCC[C@H]2C(=O)N[C@@H](Cc2ccc(C(=O)O)cc2)C(=O)N[C@@H](CC(=O)O)C(N)=O)NC(=O)[C@H](CC(N)=O)NC(=O)[C@H](Cc2c[nH]c3ccccc23)NC(=O)[C@H](CCC(N)=O)NC1=O [compound 35, DOTA-Ahx-S-D-C(3)-W-L-Q-W-N-C(3)-P-(4COOH-F)-D-CONH2] ({DOTA-Ahx}-SDCWLQWNCP[Phe(4-COOH)]D-NH2; disulfide 3-9) |
| > 100 nM |  | CSCC[C@H](NC(C)=O)C(=O)N[C@@H](CO)C(=O)N[C@@H](CC(=O)O)C(=O)N[C@H]1CSSC[C@@H](C(=O)N2CCC[C@H]2C(=O)N[C@@H](Cc2ccccc2)C(=O)N[C@H](C)C(N)=O)NC(=O)[C@H](CC(N)=O)NC(=O)[C@H](Cc2c[nH]c3ccccc23)NC(=O)[C@H](CCC(N)=O)NC(=O)[C@H](CC(C)C)NC(=O)[C@H](Cc2c[nH]c3ccccc23)NC1=O [compound 18, Ac-M-S-D-C(3)-W-L-Q-W-N-C(3)-P-F-(D-Ala)-CONH2] (Ac-MSDCWLQWNCPF[dA]-NH2; disulfide 4-10) |
| 14 nM |  | CSCC[C@H](NC(=O)CCCCCNC(=O)CN1CCN(CC(=O)O)CCN(CC(=O)O)CCN(CC(=O)O)CC1)C(=O)N[C@@H](CO)C(=O)N[C@@H](CC(=O)O)C(=O)N[C@H]1CSSC[C@@H](C(=O)N2CCC[C@H]2C(=O)N[C@@H](Cc2ccccc2)C(=O)N[C@@H](CC(=O)O)C(N)=O)NC(=O)[C@H](CC(N)=O)NC(=O)[C@H](Cc2c[nH]c3ccccc23)NC(=O)[C@H](CCC(N)=O)NC(=O)[C@H](CC(C)C)NC(=O)[C@H](Cc2c[nH]c3ccccc23)NC1=O [Cpd #7, DOTA-Ahx-M-S-D-C(3)-W-L-Q-W-N-C(3)-P-F-D-CONH2] ({DOTA-Ahx}-MSDCWLQWNCPFD-NH2; disulfide 4-10) |
|  | slow kon | CC(=O)N[C@H](C(=O)N[C@@H](CO)C(=O)N[C@@H](CC(=O)O)C(=O)N[C@H]1CSCc2ccccc2CSC[C@@H](C(=O)N2CCC[C@@]2(C)C(=O)N[C@@H](Cc2ccccc2)C(=O)N[C@@H](CC(=O)O)C(=O)N[C@H](CCCCNC(=O)CN2CCN(CC(=O)O)CCN(CC(=O)O)CCN(CC(=O)O)CC2)C(N)=O)NC(=O)[C@H](CC(N)=O)NC(=O)[C@H](Cc2c[nH]c3ccccc23)NC(=O)[C@H](CCC(N)=O)NC(=O)[C@H](CC(C)C)NC(=O)[C@H](Cc2cccc3ccccc23)NC1=O)C1CCCCC1 [compound 143, Ac-(Chg)-S-D-C(oDBX)-(1Nal)-L-Q-W-N-C(2)-(aMe-P)-F-D-D-Lys(DOTA)-CONH2] (Ac-[Chg]SDC[1Nal]LQWNC[αMeP]FD[dK](DOTA)-NH2; linker 4-10 via oXylylene) |
| 0.26 nM |  | CC(=O)N[C@H](C)C(=O)N[C@H](CO)C(=O)N[C@@H](CC(=O)O)C(=O)N[C@H]1CSSC[C@@H](C(=O)N2CCC[C@@]2(C)C(=O)C[C@@H](Cc2ccccc2)C(=O)N[C@@H](CC(=O)O)C(=O)N[C@H](CCCCNC(=O)CN2CCN(CC(=O)O)CCN(CC(=O)O)CCN(CC(=O)O)CC2)C(N)=O)NC(=O)[C@H](CC(N)=O)NC(=O)[C@H](Cc2ccc3ccccc3c2)NC(=O)[C@H](CCC(N)=O)NC(=O)[C@H](C2CCCCC2)NC(=O)[C@H](Cc2cccc3ccccc23)NC1=O [compound 126, Ac-(D-Ala)-(D-Ser)-D-C(3)-(1Nal)-(Chg)-Q-(2Nal)-N-C(3)-(aMe-P)-F-D-D-Lys(DOTA)-CONH2] (Ac-[dA][dS]DC[1Nal][Chg]Q[2Nal]NC[X1]D[dK](DOTA)-NH2; disulfide 4-10) |
